Measured values published in patent publication US12552823B2, “Glucosamine derivatives and pharmaceutical uses thereof” (RISEN (SUZHOU) PHARMA TECH CO., LTD., priority 2017, dated 2026).

Tests used:
[1] = test system: destructive arthritis rat model; settings: cited from earlier work
OVX rat = settings: feeding in the OVX rat; cited from earlier work
[2] = humans, polyvalent or monovalent form, compared with glucosamine; cited from earlier work
[3] = Pharmacokinetic studies in Sprague-Dawley (SD) rats: plasma GlcNBu after oral gavage of test compound; type: in vivo; design: key to AUC0-t / AUC0-∞ / t1/2z / Tmax / Vz/F / CLz/F / Cmax: (—): not detected; settings: 0.93 mmol/kg; for AUC0-t / AUC0-∞ / CLz/F / Cmax / Tmax / Vz/F / t1/2z: Table 5, plasma GlcNBu after oral gavage of indicated compound
Procedure: A test compound is dissolved in water at a concentration determined by the desired dose and dosing volume for the specific animal to which the compound is to be administered. A calculated volume of dosing solution is administered to the animal (PO, SQ, IP, or IV). A blood sample is collected following administration of the test compound at specific time points (such as 0 minutes (min), 5 min, 10 min, 15 min, 30 min, 1 hour (h), 1.5 h, 2 h, 3 h, 4, 6 h, etc.). The blood sample is converted to a plasma sample using standard techniques. The plasma samples are analyzed to determine the concentration of the test compound and, in some cases, GlcNBu.
According to the above general procedure, SD rats were grouped randomly into groups of six (n=6). The test compound, GlcNBu or a compound provided herein, was administered to the animals by oral gavage at a dose of 0.93 mmol/kg. For illustration purposes, GlcNBu was given at an oral dose of 232 mg/kg (0.93 mmol/kg), and compound 16 was administered at an equal molar dose (0.93 mmol/kg, i.e., 362 mg/kg). At pre-set time points, blood was taken through orbital venous plexus extraction, and the samples were analyzed using LC/MS-MS to determine the GlcNBu concentration in the plasma.
In the figure, Curves labeled with -●- and -▴-represent plasma GlcNBu concentration following oral administration of GlcNBu (232 mg/kg, or 0.93 mmol/kg) and compound 16 ([…], or 0.93 mmol/kg), respectively. […] FIG. 2A and FIG. 2B show examples of other compounds of the invention, presented in plasma GlcNBu concentration versus time curves; a summary of pharmacokinetic parameters for these compounds is given in Table 4 and Table 5.

[4] = test system: Medial Meniscus Transection (MMT) Model in Rats; assay: Medial meniscus transection (MMT) model in rats: weight bearing and histopathology; type: in vivo, rat
From the text: In the rat MMT model, the unilateral knee (right knee) was cleaned and prepped for surgery. An incision was made over the medial aspect of the femoro-tibial joint. The medial collateral ligament was exposed via blunt dissection and transected to reflect the meniscus toward the femur. A full thickness cut was made through the meniscus at its narrowest point. The joint space was returned to normal, and the skin was closed and the animal allowed to recover. For the present study, at second day post MMT induction animals, G1 and G2 animals were treatment with vehicle and test compound 16 respectively. Animals were dosed 4 times every day, and were dosed by gavage for 4 weeks.

[5] = test system: Monosodium Iodoacetate-Induced Osteoarthritis (MIA) Model in Rat Knee; assay: Monosodium iodoacetate-induced osteoarthritis (MIA) model in rat knee: weight bearing and histology; type: in vivo
Procedure: Osteoarthritis was induced by intra-articular (i.a.) injection of MIA solution in the rat knee joint as follows: Briefly, rats were anesthetized with isoflurane and given a single i.a. administration of 2 mg of MIA dissolved in saline through the intrapatellar ligament of the right knee. MIA was administered in a volume of 50 μL. Basal readings were established using a group of control rats injected with 10% ethanol in water. Rats were randomized by initial body weight to groups of 6 or 7. After MIA injection, the MIA groups began treatment with either vehicle, or a test compound at a preset dose regime for a period of 28 days. Clinical observations were recorded, including body weight, joint swelling, and weight bearing, on pre-induction day (day 0), day 3, 5, 7, 14, 21 and/or 28. At the end of the study, the animals were euthanized by CO2 and sacrificed.
Joint samples including the tibia and femur were sectioned in the coronal plane and stained using both H&E and Safranin-O. Knee joints were examined and scored for cartilage degeneration, the presence of osteophytes, the amount and extent of calcified cartilage and subchondral bone damage, and the amount of synovial membrane inflammation using the Osteoarthritis Research Society International (OARSI) scoring system put forth in 2010 (Kraus, V. B. et al., Osteoarthritis Cartilage, 2010, Suppl 3:535-52).
Studies of compound 16 in the MIA model were conducted as described above.

SMILES | AUC0-t [3] | AUC0-∞ [3] | CLz/F [3] | Cmax [3] | Tmax [3] | Vz/F [3] | t1/2z [3] | other results
CCCC(=O)N[C@H]1C(O)O[C@H](CO)[C@@H](O)[C@@H]1O (stereo partly shown) [GlcNBu, N-butyryl glucosamine] |  |  |  |  |  |  |  | subchondral bone structure [1]: preserved strikingly the subchondral bone structure; bone mineral and biomechanical properties (OVX rat): preserves bone mineral and some biomechanical properties
CC(=O)N[C@H]1C(O)O[C@H](CO)[C@@H](O)[C@@H]1O (stereo partly shown) [N-acetylglucosamine] |  |  |  |  |  |  |  | half-life [2]: longer half-life than glucosamine
CCCC(=O)N[C@H]1C(O)O[C@H](COC(=O)NCCCC(=O)O)[C@@H](O)[C@@H]1O (stereo partly drawn) [Compound 94, 2-N-butyryl-6-O-((3-carboxy-1-propyl)aminocarbonyl)-D-glucosamine] | (—) | (—) | (—) | (—) | (—) | (—) | (—) | 
CCCC(=O)N[C@H]1C(O)O[C@H](COC(=O)CCC(=O)O)[C@@H](OC(=O)CCC(=O)O)[C@@H]1O (stereo partly drawn) [Compound 79, 2-N-butyryl-4,6-di-O-(4-hydroxy-4-oxo-butyryl)-D-glucosamine] | (—) | (—) | (—) | (—) | (—) | (—) | (—) | 
CCCC(=O)N[C@H]1C(O)O[C@H](COC(=O)CCC)[C@@H](OC(=O)CCC)[C@@H]1O (stereo partly drawn) [Compound 16, 2-N-butyryl-4,6-O-tributyryl-D-glucosamine] |  |  |  |  |  |  |  | degeneration changes of chondrocyte clustering ([4]; G2 as compared with G1): significantly lower; weight bearing on the right paw ([4]; G2 as compared with G1 on Day 3 and Days 14-28): significantly increased; histology parameters ([4]; G2 vs G1, all parameters): values in all parameters lower; articular cartilage degeneration ([5]; MIA-induced OA rat model): slowed the articular cartilage degeneration; weight bearing on the back-right leg ([5]; day 5, all compound-treated groups (234 and 468 mg/kg) vs vehicle): significant increases; weight bearing ([5]; day 14, high dose (G3, 468 mg/kg) vs vehicle): significant increases; osteophytes (histology) ([5]; high dose group (468 mg/kg) compared with vehicle group): significantly decreased; other histological parameters (mean values) ([5]; high dose treated group (468 mg/kg) vs vehicle): clear trend of lowering all other mean values; plasma drug exposure ([3]; versus GlcNBu at mole-equivalent oral dose): improved plasma drug exposure significantly

Further lines, with some results ahead:

AUC0-t [3] | AUC0-∞ [3] | CLz/F [3] | Cmax [3] | Tmax [3] | Vz/F [3] | t1/2z [3] | SMILES | other results
(—) | (—) | (—) | (—) | (—) | (—) | (—) | CCCC(=O)N[C@H]1C(OCc2ccccc2)O[C@H](CO)[C@@H](O)[C@@H]1O (stereo partly drawn) [Compound 75, 1-O-benzyl-2-N-butyryl-D-glucosamine] | 
(—) | (—) | (—) | (—) | (—) | (—) | (—) | CCCC(=O)N[C@H]1C(OCc2ccccc2)O[C@H](CO)[C@@H](O)[C@@H]1OCc1ccccc1 (stereo partly drawn) [Compound 76, 2-N-butyryl-1,3-di-O-benzyl-D-glucosamine] | 
